According to patent publication US20180221306A1, “PHARMACEUTICAL COMPOSITIONS OF 5-HYDROXY-2-METHYLNAPHTHALENE-1,4-DIONE” (PellFiCure Pharmaceuticals, Inc., priority 2016, published 2018):
Marks after values point to notes of the source that are not given here.

Assays:
[1] = Forced degradation: solution stability in aqueous media (HPLC)

Structure (SMILES): CC1=CC(=O)c2c(O)cccc2C1=O [Compound I, 5-hydroxy-2-methylnaphthalene-1,4-dione]
- Stability of formulations of Compound I in PEG (5 mg/g): 50%
- Stability of the formulation in Carrier A (sesame oil), Potency as Amount (3 day, 4.6 mg/mL): 4200 µg/mL
- Solution Stability in Aqueous Media, Purity ([1]; pH 1, 50% DMSO, 25° C./60% RH, t = 0): 99.32 % Area
- Solution Stability in Aqueous Media, Purity ([1]; pH 1, 50% DMSO, 25° C./60% RH, t = 1 week): 98.83 % Area
- Solution Stability in Aqueous Media, Purity ([1]; pH 1, 50% DMSO, 25° C./60% RH, t = 2 week): 98.73 % Area
- Solution Stability in Aqueous Media, Purity ([1]; pH 1, 50% DMSO, 40° C./75% RH, t = 1 week): 98.12 % Area
- Solution Stability in Aqueous Media, Purity ([1]; pH 1, 50% DMSO, 40° C./75% RH, t = 2 week): 95.79 % Area
- Solution Stability in Aqueous Media, Purity ([1]; pH 2, 50% DMSO, 25° C./60% RH, t = 0): 98.83 % Area
- Solution Stability in Aqueous Media, Purity ([1]; pH 2, 50% DMSO, 25° C./60% RH, t = 1 week): 98.48 % Area
- Solution Stability in Aqueous Media, Purity ([1]; pH 2, 50% DMSO, 25° C./60% RH, t = 2 week): 96.90 % Area
- Solution Stability in Aqueous Media, Purity ([1]; pH 2, 50% DMSO, 40° C./75% RH, t = 1 week, precipitation observed): 93.43^‡ % Area
- Solution Stability in Aqueous Media, Purity ([1]; pH 2, 50% DMSO, 40° C./75% RH, t = 2 week, precipitation observed): 85.79^‡ % Area
- Solution Stability in Aqueous Media, Purity ([1]; pH 3, 50% DMSO, 25° C./60% RH, t = 0): 98.85 % Area
- Solution Stability in Aqueous Media, Purity ([1]; pH 3, 50% DMSO, 25° C./60% RH, t = 1 week): 97.09 % Area
- Solution Stability in Aqueous Media, Purity ([1]; pH 3, 50% DMSO, 25° C./60% RH, t = 2 week): 95.26 % Area
- Solution Stability in Aqueous Media, Purity ([1]; pH 3, 50% DMSO, 40° C./75% RH, t = 1 week): 88.81 % Area
- Solution Stability in Aqueous Media, Purity ([1]; pH 3, 50% DMSO, 40° C./75% RH, t = 2 week): 72.78 % Area
- Solution Stability in Aqueous Media, Purity ([1]; pH 4, 50% DMSO, 25° C./60% RH, t = 0): 98.73 % Area
- Solution Stability in Aqueous Media, Purity ([1]; pH 4, 50% DMSO, 25° C./60% RH, t = 1 week, precipitation observed): 96.77^‡ % Area
- Solution Stability in Aqueous Media, Purity ([1]; pH 4, 50% DMSO, 25° C./60% RH, t = 2 week, precipitation observed): 93.81^‡ % Area
- Solution Stability in Aqueous Media, Purity ([1]; pH 4, 50% DMSO, 40° C./75% RH, t = 1 week, precipitation observed): 87.32^‡ % Area
- Solution Stability in Aqueous Media, Purity ([1]; pH 4, 50% DMSO, 40° C./75% RH, t = 2 week, precipitation observed): 73.78^‡ % Area
- Solution Stability in Aqueous Media, Purity ([1]; pH 5, 50% DMSO, 25° C./60% RH, t = 0): 98.46 % Area
- Solution Stability in Aqueous Media, Purity ([1]; pH 5, 50% DMSO, 25° C./60% RH, t = 1 week, precipitation observed): 92.26^‡ % Area
- Solution Stability in Aqueous Media, Purity ([1]; pH 5, 50% DMSO, 25° C./60% RH, t = 2 week, precipitation observed): 83.09^‡ % Area
- Solution Stability in Aqueous Media, Purity ([1]; pH 5, 50% DMSO, 40° C./75% RH, t = 1 week, precipitation observed): 58.98^‡ % Area
- Solution Stability in Aqueous Media, Purity ([1]; pH 5, 50% DMSO, 40° C./75% RH, t = 2 week, precipitation observed): 29.30^‡ % Area
- Solution Stability in Aqueous Media, Purity ([1]; pH 6, 50% DMSO, 25° C./60% RH, t = 0): 97.78 % Area
- Solution Stability in Aqueous Media, Purity ([1]; pH 6, 50% DMSO, 25° C./60% RH, t = 1 week): 69.37 % Area
- Solution Stability in Aqueous Media, Purity ([1]; pH 6, 50% DMSO, 25° C./60% RH, t = 2 week, precipitation observed): 44.92^‡ % Area
- Solution Stability in Aqueous Media, Purity ([1]; pH 6, 50% DMSO, 40° C./75% RH, t = 1 week): <10 % Area
- Solution Stability in Aqueous Media, Purity ([1]; pH 6, 50% DMSO, 40° C./75% RH, t = 2 week, precipitation observed): <10^‡ % Area
- Solution Stability in Aqueous Media, Purity ([1]; pH 7, 50% DMSO, 25° C./60% RH, t = 0): 91.09 % Area
- Solution Stability in Aqueous Media, Purity ([1]; pH 7, 50% DMSO, 25° C./60% RH, t = 1 week): <10 % Area
- Solution Stability in Aqueous Media, Purity ([1]; pH 7, 50% DMSO, 25° C./60% RH, t = 2 week, precipitation observed): <10^‡ % Area
- Solution Stability in Aqueous Media, Purity ([1]; pH 7, 50% DMSO, 40° C./75% RH, t = 1 week): <10 % Area
- Solution Stability in Aqueous Media, Purity ([1]; pH 7, 50% DMSO, 40° C./75% RH, t = 2 week, precipitation observed): <10^‡ % Area
- Solution Stability in Aqueous Media, Purity ([1]; pH 8, 50% DMSO, 25° C./60% RH, t = 0): 81.64 % Area
- Solution Stability in Aqueous Media, Purity ([1]; pH 8, 50% DMSO, 25° C./60% RH, t = 1 week): <10 % Area
- Solution Stability in Aqueous Media, Purity ([1]; pH 8, 50% DMSO, 25° C./60% RH, t = 2 week, precipitation observed): <10^‡ % Area
- Solution Stability in Aqueous Media, Purity ([1]; pH 8, 50% DMSO, 40° C./75% RH, t = 1 week): <10 % Area
- Solution Stability in Aqueous Media, Purity ([1]; pH 8, 50% DMSO, 40° C./75% RH, t = 2 week, precipitation observed): <10^‡ % Area
- Solution Stability in Aqueous Media, Purity ([1]; pH 9, 50% DMSO, 25° C./60% RH, t = 0): 89.84 % Area
- Solution Stability in Aqueous Media, Purity ([1]; pH 9, 50% DMSO, 25° C./60% RH, t = 1 week): 30.06 % Area
- Solution Stability in Aqueous Media, Purity ([1]; pH 9, 50% DMSO, 25° C./60% RH, t = 2 week, precipitation observed): 7.58^‡ % Area
- Solution Stability in Aqueous Media, Purity ([1]; pH 9, 50% DMSO, 40° C./75% RH, t = 1 week): <10 % Area
- Solution Stability in Aqueous Media, Purity ([1]; pH 9, 50% DMSO, 40° C./75% RH, t = 2 week, precipitation observed): <10^‡ % Area
- Solution Stability in Aqueous Media, Purity ([1]; pH 10, 50% DMSO, 25° C./60% RH, t = 0): 88.46 % Area
- Solution Stability in Aqueous Media, Purity ([1]; pH 10, 50% DMSO, 25° C./60% RH, t = 1 week): 37.43 % Area
- Solution Stability in Aqueous Media, Purity ([1]; pH 10, 50% DMSO, 25° C./60% RH, t = 2 week, precipitation observed): <10^‡ % Area
- Solution Stability in Aqueous Media, Purity ([1]; pH 10, 50% DMSO, 40° C./75% RH, t = 1 week, precipitation observed): <10^‡ % Area
- Solution Stability in Aqueous Media, Purity ([1]; pH 10, 50% DMSO, 40° C./75% RH, t = 2 week, precipitation observed): <10^‡ % Area
- Solution Stability in Aqueous Media, Purity ([1]; water, 25° C./60% RH, t = 0): 96.33 % Area
- Solution Stability in Aqueous Media, Purity ([1]; water, 25° C./60% RH, t = 1 week, precipitation observed): 66.97^‡ % Area
- Solution Stability in Aqueous Media, Purity ([1]; water, 25° C./60% RH, t = 2 week, precipitation observed): 53.76^‡ % Area
- Solution Stability in Aqueous Media, Purity ([1]; water, 40° C./75% RH, t = 1 week, precipitation observed): 45.09^‡ % Area
- Solution Stability in Aqueous Media, Purity ([1]; water, 40° C./75% RH, t = 2 week, precipitation observed): 44.20^‡ % Area
